Data from PMC10581841, “Rapid Separation of Asiatic Acid, Quercetin, and Kaempferol from Traditional Chinese Medicine Centella asiatica (L.) Urban Using HSCCC-Semi-Prep-HPLC and the Assessment of Their Potential as Fatty Acid Synthase Inhibitors” (International Journal of Analytical Chemistry, 2023).
Read-outs that look alike come from different tables or passages of the source.

Molecular target: T1, fatty acid synthetase (FAS) (Anas platyrhynchos, UniProt A0A0D3LZ43)
T1 construct: native enzyme purified from fresh duck liver
Assay: UV spectrophotometric FAS activity assay at […] nm (NADPH)
Type: biochemical

[1] = read-out: IC50 (μg/mL) (converted)

T1 sequence (A0A0D3LZ43 1-2514): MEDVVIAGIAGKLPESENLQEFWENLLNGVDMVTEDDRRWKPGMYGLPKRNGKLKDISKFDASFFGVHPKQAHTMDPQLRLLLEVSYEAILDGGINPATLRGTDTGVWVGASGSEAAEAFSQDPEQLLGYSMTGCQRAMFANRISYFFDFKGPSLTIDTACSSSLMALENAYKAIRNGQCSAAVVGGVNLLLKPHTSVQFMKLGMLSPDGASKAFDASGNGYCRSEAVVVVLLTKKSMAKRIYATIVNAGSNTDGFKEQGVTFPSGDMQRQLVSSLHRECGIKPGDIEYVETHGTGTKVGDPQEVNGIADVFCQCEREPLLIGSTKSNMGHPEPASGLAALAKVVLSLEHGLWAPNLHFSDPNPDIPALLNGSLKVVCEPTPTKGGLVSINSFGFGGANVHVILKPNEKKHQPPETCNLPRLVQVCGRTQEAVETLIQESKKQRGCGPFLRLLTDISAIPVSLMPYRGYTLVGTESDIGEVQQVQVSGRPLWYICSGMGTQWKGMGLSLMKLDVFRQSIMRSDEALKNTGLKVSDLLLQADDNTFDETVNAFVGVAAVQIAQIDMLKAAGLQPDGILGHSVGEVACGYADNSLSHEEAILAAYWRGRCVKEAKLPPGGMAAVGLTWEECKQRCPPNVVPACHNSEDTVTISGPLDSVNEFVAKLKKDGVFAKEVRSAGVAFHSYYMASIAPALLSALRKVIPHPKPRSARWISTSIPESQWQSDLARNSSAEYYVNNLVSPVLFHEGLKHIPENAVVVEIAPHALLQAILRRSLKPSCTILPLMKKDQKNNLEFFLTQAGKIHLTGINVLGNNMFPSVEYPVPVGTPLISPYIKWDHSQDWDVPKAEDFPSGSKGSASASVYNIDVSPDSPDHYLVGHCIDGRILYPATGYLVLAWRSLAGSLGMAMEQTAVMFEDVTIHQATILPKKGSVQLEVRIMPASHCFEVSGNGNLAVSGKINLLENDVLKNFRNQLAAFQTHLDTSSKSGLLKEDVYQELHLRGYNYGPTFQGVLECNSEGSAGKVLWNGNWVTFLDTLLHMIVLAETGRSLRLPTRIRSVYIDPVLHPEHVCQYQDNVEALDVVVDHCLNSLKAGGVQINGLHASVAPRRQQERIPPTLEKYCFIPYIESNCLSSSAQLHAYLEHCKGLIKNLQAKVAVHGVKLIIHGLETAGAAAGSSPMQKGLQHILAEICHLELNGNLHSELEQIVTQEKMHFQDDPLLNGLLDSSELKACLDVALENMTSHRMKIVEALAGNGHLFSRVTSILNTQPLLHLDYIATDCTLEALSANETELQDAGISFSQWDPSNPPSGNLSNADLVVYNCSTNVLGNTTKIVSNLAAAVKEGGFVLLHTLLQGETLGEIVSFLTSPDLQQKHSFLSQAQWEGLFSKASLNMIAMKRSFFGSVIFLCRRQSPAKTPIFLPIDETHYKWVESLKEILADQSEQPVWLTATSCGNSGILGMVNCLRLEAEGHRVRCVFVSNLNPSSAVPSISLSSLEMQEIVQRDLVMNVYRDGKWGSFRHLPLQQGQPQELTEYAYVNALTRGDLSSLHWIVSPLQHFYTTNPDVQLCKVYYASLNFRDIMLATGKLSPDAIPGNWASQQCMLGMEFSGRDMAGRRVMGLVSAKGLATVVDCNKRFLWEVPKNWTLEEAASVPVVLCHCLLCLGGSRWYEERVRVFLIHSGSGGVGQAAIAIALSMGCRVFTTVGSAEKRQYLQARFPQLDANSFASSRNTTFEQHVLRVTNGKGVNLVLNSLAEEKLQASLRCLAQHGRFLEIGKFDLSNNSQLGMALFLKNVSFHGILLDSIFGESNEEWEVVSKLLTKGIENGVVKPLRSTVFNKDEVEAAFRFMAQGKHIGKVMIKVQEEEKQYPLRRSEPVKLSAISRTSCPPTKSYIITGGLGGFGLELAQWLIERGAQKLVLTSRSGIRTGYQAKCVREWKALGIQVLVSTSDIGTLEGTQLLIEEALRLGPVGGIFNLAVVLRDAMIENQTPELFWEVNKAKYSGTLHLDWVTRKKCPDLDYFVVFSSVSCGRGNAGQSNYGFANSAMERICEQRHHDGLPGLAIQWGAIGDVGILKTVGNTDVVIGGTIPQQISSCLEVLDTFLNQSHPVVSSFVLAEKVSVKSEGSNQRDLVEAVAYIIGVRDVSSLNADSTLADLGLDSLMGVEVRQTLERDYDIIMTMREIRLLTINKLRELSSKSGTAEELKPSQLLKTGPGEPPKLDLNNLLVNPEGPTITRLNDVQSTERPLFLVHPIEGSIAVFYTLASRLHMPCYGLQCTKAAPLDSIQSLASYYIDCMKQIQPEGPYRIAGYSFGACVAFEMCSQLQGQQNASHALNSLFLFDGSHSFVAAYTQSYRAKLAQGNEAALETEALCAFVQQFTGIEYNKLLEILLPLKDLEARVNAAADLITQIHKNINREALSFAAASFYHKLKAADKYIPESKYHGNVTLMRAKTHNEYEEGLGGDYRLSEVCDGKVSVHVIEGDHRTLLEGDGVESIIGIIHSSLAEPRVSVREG

Structure (SMILES)	IC50	IC50 [1]
C[C@H]1[C@H](C)CC[C@]2(C(=O)O)CC[C@]3(C)C(=CC[C@@H]4[C@@]5(C)C[C@@H](O)[C@H](O)[C@@](C)(CO)[C@@H]5[C@H](O)C[C@]43C)[C@H]12 [MA, madecassic acid]	21.5 µM	–
C[C@H]1[C@H](C)CC[C@]2(C(=O)O)CC[C@]3(C)C(=CC[C@@H]4[C@@]5(C)C[C@@H](O)[C@H](O)[C@@](C)(CO)[C@@H]5CC[C@]43C)[C@H]12 [AA, asiatic acid]	–	19.5 µM
O=c1c(O)c(-c2ccc(O)c(O)c2)oc2cc(O)cc(O)c12 [QCN, quercetin]	143 µM	–
O=c1c(O)c(-c2ccc(O)cc2)oc2cc(O)cc(O)c12 [KPL, kaempferol]	–	129 µM
